Measurements as given in paper PMC13198257, “An aerosolized dual-action autotaxin inhibitor-PPARγ agonist for the treatment of pulmonary fibrosis” (Cell Reports Medicine, 2026).

System: lung gene expression
Assay: RNA sequencing of lung tissue (BLM/EL244 vs BLM)
Type: in vivo, mouse
Protocol: RNA quality was assessed using an Agilent TapeStation 4150 with the High Sensitivity […] ScreenTape (Agilent), according to the manufacturer’s protocols. For library preparation, the QuantSeq 3’mRNA-Seq Library Prep Kit (Lexogen) was used according to manufacturer’s instructions. Briefly, 500 ng of RNA from each sample was used for first-strand synthesis, followed by RNA template removal, and second-strand synthesis initiated by random primers. In-line barcodes were introduced at this step, and this was followed by magnetic bead-based purification. The resulting libraries were amplified for 15 cycles and re-purified, with quantity and quality assessed on a Qubit 4 Fluorometer with the Invitrogen Qubit dsDNA HS Assay and an Agilent Tapestation 4150 with the High Sensitivity D1000 assay kit, respectively. The quantified libraries were pooled equimolarly; 50ng of total library mix was used for Adapter Conversion PCR Amplification using the Universal Library Conversion Kit (App-A), Version: V1.0 (MGI Tech Co., Ltd.), according to the manufacturer’s instructions.
The quantity and quality of the purified adapter conversion PCR (AC-PCR) product were evaluated on a Qubit 4 Fluorometer with the Invitrogen Qubit dsDNA HS Assay and on an Agilent Tapestation 4150 with the High Sensitivity D1000 assay kit, respectively. This was followed by DNA denaturation, Single-Strand Circularisation, Enzymatic Digestion, Enzymatic Digestion Product Cleanup and Quality Control steps on 1 pmol of AC-PCR product, according to the Universal Library Conversion Kit (App-A) User Manual (Version: A3).
Finally, 60 fmol of ssCirDNA were used for DNB preparation and sequencing on a DNBSEQ-G400 platform at the BSRC Alexander Fleming Genomics Facility, using a G400 App-A FCS SE100 High-throughput Sequencing Set (MGI Tech Co., Ltd.), according to the manufacturer’s instructions.
Alignment of the FASTQ files was performed against the mouse genome build mm10 using a custom Bash script.[143] Read counting on the 3′ UTRs and differential expression analysis were conducted using the metaseqR2 bioconductor package.[144] Genes corresponding to the following biotypes were excluded: polymorphic_pseudogene, processed_transcript, pseudogene, IG_V_pseudogene, misc_RNA, IG_C_gene, IG_J_gene, IG_D_gene, IG_LV_gene, TR_V_gene, TR_V_pseudogene, TEC, and processed_pseudogene. Gene counts were normalized with DESEQ[145] through metaseqR2. Genes with more than 10 counts in at least 50% of the samples were kept for further processing. For differential expression analysis, the PANDORA algorithm[146] was used to estimate a meta p-value integrating the results from the DESEQ, DESEQ2,[147] edgeR,[148] limma,[149] NBPSeq,[150] and NOISeq[151] algorithms. All additional parameters were set to default values.
Pathway enrichment analysis was performed for the Gene Ontology Biological process (BP) and Molecular Function (MF) terms through GeneCodis 4.[152] The volcano plots, scatterplots, Venn diagrams, and dot plots were generated using the ggplot2 Bioconductor package.

O=C1NC(=O)C(Cc2ccc(OCCC3CCN(C(=O)OCc4cc(Cl)cc(Cl)c4)CC3)cc2)S1 (stereo not shown) [EL244, 3,5-dichlorobenzyl 4-(2-(4-((2,4-dioxothiazolidin-5-yl)methyl)phenoxy)ethyl)piperidine-1-carboxylate]
Ear1 log2 nFC BLM/EL244 vs BLM (DEG Ear1, nFC: normalised fold change): 1.11
Ednrb log2 nFC BLM/EL244 vs BLM (DEG Ednrb, nFC: normalised fold change): 0.97
Elmod1 log2 nFC BLM/EL244 vs BLM (DEG Elmod1, nFC: normalised fold change): 0.89
Eml5 log2 nFC BLM/EL244 vs BLM (DEG Eml5, nFC: normalised fold change): 1.41
Eng log2 nFC BLM/EL244 vs BLM (DEG Eng, nFC: normalised fold change): 0.81
Errfi1 log2 nFC BLM/EL244 vs BLM (DEG Errfi1, nFC: normalised fold change): 0.95
Esm1 log2 nFC BLM/EL244 vs BLM (DEG Esm1, nFC: normalised fold change): 1.28
Fabp3 log2 nFC BLM/EL244 vs BLM (DEG Fabp3, nFC: normalised fold change): 0.98
Fabp12 log2 nFC BLM/EL244 vs BLM (DEG Fabp12, nFC: normalised fold change): 1.43
Faim2 log2 nFC BLM/EL244 vs BLM (DEG Faim2, nFC: normalised fold change): 2.03
Fam71f2 log2 nFC BLM/EL244 vs BLM (DEG Fam71f2, nFC: normalised fold change): 1.96
log2 nFC BLM/EL244 vs BLM (DEG Fcgr1): -1.30
log2 nFC BLM/EL244 vs BLM (DEG Fcrls): -1.35
log2 nFC BLM/EL244 vs BLM (DEG Fgf13): -1.40
log2 nFC BLM/EL244 vs BLM (DEG Fkbp10): -1.25
Fmo1 log2 nFC BLM/EL244 vs BLM (DEG Fmo1, nFC: normalised fold change): 0.86
Fmo2 log2 nFC BLM/EL244 vs BLM (DEG Fmo2, nFC: normalised fold change): 1.00
Fosb log2 nFC BLM/EL244 vs BLM (DEG Fosb, nFC: normalised fold change): 2.38
log2 nFC BLM/EL244 vs BLM (DEG Foxm1): -1.56
Fxyd1 log2 nFC BLM/EL244 vs BLM (DEG Fxyd1, nFC: normalised fold change): 0.80
Fzd4 log2 nFC BLM/EL244 vs BLM (DEG Fzd4, nFC: normalised fold change): 0.69
Galnt15 log2 nFC BLM/EL244 vs BLM (DEG Galnt15, nFC: normalised fold change): 0.89
log2 nFC BLM/EL244 vs BLM (DEG Gas2l3): -1.32
Ggt1 log2 nFC BLM/EL244 vs BLM (DEG Ggt1, nFC: normalised fold change): 1.91
log2 nFC BLM/EL244 vs BLM (DEG Gins2): -1.57
Gm867 log2 nFC BLM/EL244 vs BLM (DEG Gm867, nFC: normalised fold change): 2.18
Gm4956 log2 nFC BLM/EL244 vs BLM (DEG Gm4956, nFC: normalised fold change): 1.08
Gm9780 log2 nFC BLM/EL244 vs BLM (DEG Gm9780, nFC: normalised fold change): 2.06
Gm14964 log2 nFC BLM/EL244 vs BLM (DEG Gm14964, nFC: normalised fold change): 1.87
Gm20186 log2 nFC BLM/EL244 vs BLM (DEG Gm20186, nFC: normalised fold change): 1.31
Gm26236 log2 nFC BLM/EL244 vs BLM (DEG Gm26236, nFC: normalised fold change): 1.03
Gm42722 log2 nFC BLM/EL244 vs BLM (DEG Gm42722, nFC: normalised fold change): 1.79
Gm47291 log2 nFC BLM/EL244 vs BLM (DEG Gm47291, nFC: normalised fold change): 0.98
Gm49353 log2 nFC BLM/EL244 vs BLM (DEG Gm49353, nFC: normalised fold change): 2.21
Gm49391 log2 nFC BLM/EL244 vs BLM (DEG Gm49391, nFC: normalised fold change): 0.96
Gnao1 log2 nFC BLM/EL244 vs BLM (DEG Gnao1, nFC: normalised fold change): 0.85
Gnmt log2 nFC BLM/EL244 vs BLM (DEG Gnmt, nFC: normalised fold change): 1.14
Gpm6a log2 nFC BLM/EL244 vs BLM (DEG Gpm6a, nFC: normalised fold change): 0.83
Gpr155 log2 nFC BLM/EL244 vs BLM (DEG Gpr155, nFC: normalised fold change): 0.76
Gprasp1 log2 nFC BLM/EL244 vs BLM (DEG Gprasp1, nFC: normalised fold change): 0.72
Gpt log2 nFC BLM/EL244 vs BLM (DEG Gpt, nFC: normalised fold change): 0.73
Gria1 log2 nFC BLM/EL244 vs BLM (DEG Gria1, nFC: normalised fold change): 1.61
Gsn log2 nFC BLM/EL244 vs BLM (DEG Gsn, nFC: normalised fold change): 1.06
Gsta3 log2 nFC BLM/EL244 vs BLM (DEG Gsta3, nFC: normalised fold change): 1.10
Gstm1 log2 nFC BLM/EL244 vs BLM (DEG Gstm1, nFC: normalised fold change): 0.75
log2 nFC BLM/EL244 vs BLM (DEG Gtse1): -1.49
log2 nFC BLM/EL244 vs BLM (DEG Gxylt2): -1.47
Gzma log2 nFC BLM/EL244 vs BLM (DEG Gzma, nFC: normalised fold change): 1.70
log2 nFC BLM/EL244 vs BLM (DEG H2ac11): -1.45
log2 nFC BLM/EL244 vs BLM (DEG H2ac12): -1.44
Hba-a1 log2 nFC BLM/EL244 vs BLM (DEG Hba-a1, nFC: normalised fold change): 1.21
Hba-a2 log2 nFC BLM/EL244 vs BLM (DEG Hba-a2, nFC: normalised fold change): 1.14
Hbb-bs log2 nFC BLM/EL244 vs BLM (DEG Hbb-bs, nFC: normalised fold change): 1.10
Hbb-bt log2 nFC BLM/EL244 vs BLM (DEG Hbb-bt, nFC: normalised fold change): 1.09
log2 nFC BLM/EL244 vs BLM (DEG Hells): -1.30
Hhatl log2 nFC BLM/EL244 vs BLM (DEG Hhatl, nFC: normalised fold change): 2.05
Hlf log2 nFC BLM/EL244 vs BLM (DEG Hlf, nFC: normalised fold change): 0.89
Igf1r log2 nFC BLM/EL244 vs BLM (DEG Igf1r, nFC: normalised fold change): 0.70
